Measurements reported in paper PMC12005470, “Effects of Cholesterol on the Breast Cancer Resistance Protein: Studies through the Synthesis and Biological Evaluation of Chemical Tools” (Chemmedchem, 2025).

Experiments:
[1] = biological target: T1, breast cancer resistance protein (BCRP/ABCG2) (Homo sapiens, UniProt Q9UNQ0); assay: Ko143-sensitive accumulation in HEK293-ABCG2 cells, confocal microscopy; efflux by flow cytometry; format: cell-based
T1 sequence (Q9UNQ0 1-655): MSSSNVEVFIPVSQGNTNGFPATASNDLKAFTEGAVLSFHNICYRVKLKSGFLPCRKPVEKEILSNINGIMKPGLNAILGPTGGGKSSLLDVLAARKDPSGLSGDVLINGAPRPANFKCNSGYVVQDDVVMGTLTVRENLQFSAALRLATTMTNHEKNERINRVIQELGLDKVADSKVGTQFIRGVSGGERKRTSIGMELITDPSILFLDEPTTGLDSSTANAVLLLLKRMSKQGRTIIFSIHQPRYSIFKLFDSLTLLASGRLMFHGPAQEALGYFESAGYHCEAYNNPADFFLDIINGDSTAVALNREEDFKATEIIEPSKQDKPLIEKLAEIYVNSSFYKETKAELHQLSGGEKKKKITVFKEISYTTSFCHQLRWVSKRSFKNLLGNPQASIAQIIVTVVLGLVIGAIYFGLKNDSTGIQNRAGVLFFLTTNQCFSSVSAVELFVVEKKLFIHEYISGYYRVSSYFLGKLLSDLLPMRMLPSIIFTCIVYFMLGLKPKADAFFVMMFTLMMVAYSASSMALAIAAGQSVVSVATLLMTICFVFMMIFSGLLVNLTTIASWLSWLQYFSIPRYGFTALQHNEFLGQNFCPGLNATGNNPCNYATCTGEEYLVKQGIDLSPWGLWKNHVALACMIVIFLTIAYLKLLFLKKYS

[2] = biological target: T1, breast cancer resistance protein (BCRP/ABCG2); assay: cell-based

| IC50 [2] [nM] | Compound | Ko143-sensitive accumulation in HEK293-ABCG2 cells, confocal microscopy; efflux [1] |
| --- | --- | --- |
|  | C=Cc1c(C)c2cc3nc(c4c5[nH]c(cc6nc(cc1[nH]2)C(C)=C6CC)c(C)c5C(=O)[C@@H]4C(=O)OC)[C@@H](CCC(=O)O)[C@@H]3C [compound 2, pheophorbide a] | ABCG2 inhibition by Ko143 caused an intracellular accumulation of hoechst and pheophorbide a (Figure S1) |
| 2210 ± 500 | O=C(/C=C/c1ccccc1)c1ccccc1 [compound 5, Chalcone (5)] |  |
